The values that follow come from US12612412B2, “Antiviral heterocyclic compounds” (Enanta Pharmaceuticals, Inc., priority 2021, dated 2026).

Bounds are passed on as bounds.

Assay [1] concerns genotype A, "Long" strain RSV. Briefly: RSV-A assay (CPE protection in Hep-2 cells, ATPlite readout). It is filed as cell-based, Human respiratory syncytial virus (HRSV). The conditions noted are these: human respiratory syncytial virus, genotype A “Long” strain RSV, MOI 0.1, CPE protection, read-out: Human RSV-A (“Long”). In a few lines:
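Protection from RSV-induced cytopathic effect measured by ATP content (ATPlite) after 5-day culture. Infection used genotype A Long virus at MOI 0.1 on 8,000 Hep-2 cells per well, with compound serially diluted 2-fold; values are EC50.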

Assay [2] concerns HMPV clinical isolate TN/1501/A1. Briefly: HMPV antiviral assay Method-B (clinical isolate TN/1501/A1 in LLC-MK2 cells, ATP-Lite readout). It counts as cell-based, Human metapneumovirus (HMPV). The conditions noted are these: human metapneumovirus, LLC-MK2, 144 h, hMPV WT1501 (clinical isolate TN/1501/A1), 6 days. The method, then:
In vitro HMPV antiviral activity was evaluated using the clinical isolate TN/1501/A1 and LLC-MK2 cells (ATCC #CCL-7), an immortalized kidney epithelial cell line from Macaca mulatta. Compounds were resuspended in dimethyl sulfoxide (DMSO) at 10 mM and added to a 384-well source plate. The compounds were diluted and transferred onto 384-well assay plates using the Echo-650 automated liquid handling system (Beckman Coulter, Indiana). The test compounds were assessed in duplicate at a top concentration of 10 μM followed by 3-fold serial dilutions to give a total of 10 concentration points. DMSO control wells were also included on the assay plates and were either infected or not, acting as positive and negative controls. TN/1501/A1 virus infections were performed in-suspension with LLC-MK2 cells. The cells were washed twice with PBS and removed from the cell-culture flask with 0.25% trypsin-EDTA (Thermo Fisher Scientific, MA). The trypsin-EDTA was inactivated by resuspending in 2% fetal bovine serum (FBS) and OptiMEM (ThermoFisher Scientific, MA) containing 1% penicillin-streptomycin. Cells were pelleted by centrifuging for 5 minutes at 800 rpm, the supernatant was removed, and cells were suspended in PBS plus 100 μg/mL CaCl2). This step was performed twice. Cells were then resuspended in serum-free (SF)-OptiMEM containing 4 μg/mL TPCK-Trypsin (Sigma Aldrich, MO), 1% penicillin-streptomycin (ThermoFisher Scientific, MA) and 100 μg/mL CaCl2). Cells were counted and seeded at a density of 5,000 cells/well, 12.5 μL/well. Virus infections were done at a multiplicity of infection (MOI) of 0.014 with 12.5 μL added per well. SF-OptiMEM, 12.5 μL/well, was added to the appropriate wells to serve as a virus-free negative control for the assay. The final concentration of TPCK-trypsin was 2 μg/mL. Plates were incubated at 37° C., 5% CO2 for 6 days. After 6 days incubation, 12.5 μL of ATP-Lite (PerkinElmer, MA) was added to each well and the raw luminescence values were determined using the Envision 2104 (Perkin Elmer, MA). The average of the raw luminescence values for the cells and virus only positive control wells was subtracted from all conditions tested and the percent cell health was determined by dividing these values by the average of the cells only negative control wells. EC50 values were then calculated by non-linear regression using a four-parameter curve logistic equation. The curve fit model employed was XLFit Dose Response One Site Model 200: y=(A+(B/(1+((x/C)^D)))), where A is the minimum y value, B is the maximum y value, C is the log EC50 value, and D is the slope factor. […] EC50 ranges are as follows: A<0.5 μM; B>0.5 μM.

Turning to `C[C@]1(C(N)=O)COc2c1cc([C@@](O)(CNC(=O)c1cc(OC3CC3)n3nc(C4CC4)cc3c1)C(F)(F)F)nc2-c1ccc2c(c1)OC(F)(F)O2` [Example 504], the EC50 in assay [1] was less than 200 nM; in assay [2] it was less than 500 nM.
Take `COc1cc(C(=O)NC[C@](O)(c2cc3c(c(-c4ccc5c(c4)OC(F)(F)O5)n2)OC[C@]3(C)C(N)=O)C(F)(F)F)cc2sc(C)nc12` [Example 505]: the EC50 in assay [1] was less than 200 nM; in assay [2] it was less than 500 nM.
As to `COc1cc(C(=O)NC[C@](O)(c2cc3c(c(-c4ccc(F)c(F)c4F)n2)OC[C@]3(C)C(N)=O)C(F)(F)F)cc2cc(Cl)c(C)nc12` [Example 506], the EC50 was less than 200 nM in assay [1] and less than 500 nM in assay [2].
As for `COc1cc(C(=O)NC[C@](O)(c2cc3c(c(-c4ccc(F)c(F)c4F)n2)OC[C@]3(C)C(N)=O)C(F)(F)F)cc2cc(C3CC3)nn12` [Example 507], the values for the EC50 in assay [1] and in assay [2] were less than 200 nM and less than 500 nM, respectively.
Take `C[C@]1(C(N)=O)COc2c1cc([C@@](O)(CNC(=O)c1cc(OC3CC3)n3nc(C4CC4)cc3c1)C(F)(F)F)nc2-c1ccc(F)c(F)c1F` [Example 508]: the EC50 is less than 200 nM in assay [1] and less than 500 nM in assay [2].
The matching figures for `COc1cc(C(=O)NC[C@](O)(c2cc3c(c(-c4ccc(F)cc4Cl)n2)OC[C@]3(C)C(N)=O)C(F)(F)F)cc2cc(Cl)c(C)nc12` [Example 509]: less than 200 nM and less than 500 nM.
Take `COc1cc(C(=O)NC[C@](O)(c2cc3c(c(-c4ccc(F)cc4Cl)n2)OC[C@]3(C)C(N)=O)C(F)(F)F)cc2cc(C3CC3)nn12` [Example 510]: the EC50 in assay [1] is less than 200 nM; in assay [2], less than 500 nM.
As for `COc1cc(C(=O)NC[C@](O)(c2cc3c(c(-c4ccc(F)c(F)c4F)n2)OC[C@]3(C)C(N)=O)C(F)(F)F)cc2cc(C(F)(F)F)cnc12` [Example 512], the EC50 in assay [1] was less than 200 nM; in assay [2], more than 500 nM.
For `Cc1cnc2c(Cl)cc(C(=O)NC[C@](O)(c3cc4c(c(-c5ccc(F)c(F)c5F)n3)OC[C@]4(C)C(N)=O)C(F)(F)F)cc2c1` [Example 513], the EC50 in assay [1] is less than 200 nM; in assay [2], less than 500 nM.
For the compound `Cc1nc2c(OC3CC3)cc(C(=O)NC[C@](O)(c3cc4c(c(-c5ccc(F)c(F)c5F)n3)OC[C@]4(C)C(N)=O)C(F)(F)F)cc2cc1Cl` [Example 514], the EC50 is less than 200 nM in assay [1] and less than 500 nM in assay [2].
The matching figures for `Cc1cnc2c(OC(F)(F)F)cc(C(=O)NC[C@](O)(c3cc4c(c(-c5ccc(F)c(F)c5F)n3)OC[C@]4(C)C(N)=O)C(F)(F)F)cc2c1` [Example 515]: less than 200 nM and less than 500 nM.
Consider `COc1cc(C(=O)NC[C@](O)(c2cc3c(c(-c4ccc(F)cc4Cl)n2)OC[C@]3(C)C(N)=O)C(F)(F)F)cc2cc(C(F)(F)F)cnc12` [Example 516], for which the EC50 was less than 200 nM in assay [1] and more than 500 nM in assay [2].
On to `Cc1cnc2c(Cl)cc(C(=O)NC[C@](O)(c3cc4c(c(-c5ccc(F)cc5Cl)n3)OC[C@]4(C)C(N)=O)C(F)(F)F)cc2c1` [Example 517], for which the results for the EC50 in assay [1] and in assay [2] were less than 200 nM and less than 500 nM, respectively.
The matching figures for `Cc1nc2c(OC3CC3)cc(C(=O)NC[C@](O)(c3cc4c(c(-c5ccc(F)cc5Cl)n3)OC[C@]4(C)C(N)=O)C(F)(F)F)cc2cc1Cl` [Example 518]: less than 200 nM and less than 500 nM.
Regarding `Cc1cnc2c(OC(F)(F)F)cc(C(=O)NC[C@](O)(c3cc4c(c(-c5ccc(F)cc5Cl)n3)OC[C@]4(C)C(N)=O)C(F)(F)F)cc2c1` [Example 519], the EC50 in assay [1] was less than 200 nM; in assay [2], more than 500 nM.
As to `COc1cc(C(=O)NC[C@](O)(c2cc3c(c(-c4ccc(F)c(F)c4F)n2)OC[C@]3(C)C(N)=O)C(F)(F)F)cc2cc(Br)cnc12` [Example 520], the values for the EC50 in assay [1] and in assay [2] were less than 200 nM and less than 500 nM, respectively.
For `COc1cc(C(=O)NC[C@](O)(c2cc3c(c(-c4ccc(F)cc4Cl)n2)OC[C@]3(C)C(N)=O)C(F)(F)F)cc2cc(Br)cnc12` [Example 521], the EC50 in assay [1] was less than 200 nM; in assay [2], less than 500 nM.
For the compound `COc1cc(C(=O)NC[C@](O)(c2cc3c(c(-c4ccc(F)c(F)c4F)n2)OC[C@]3(C)C(N)=O)C(F)(F)F)cc2cn(C3(F)CC3)nc12` [Example 522], the EC50 in assay [1] is less than 200 nM; in assay [2] it was less than 500 nM.
`Cc1cnc2c(OC(F)F)cc(C(=O)NC[C@](O)(c3cc4c(c(-c5ccc(F)c(F)c5F)n3)OC[C@]4(C)C(N)=O)C(F)(F)F)cc2c1` [Example 523]: the results for the EC50 in assay [1] and in assay [2] were less than 200 nM and less than 500 nM, respectively.
As to `Cc1cnc2c(OC(F)F)cc(C(=O)NC[C@](O)(c3cc4c(c(-c5ccc(F)cc5Cl)n3)OC[C@]4(C)C(N)=O)C(F)(F)F)cc2c1` [Example 524], the EC50 in assay [1] was less than 200 nM; in assay [2], less than 500 nM.
As to `COc1cc(C(=O)NC[C@](O)(c2cc3c(c(-c4ccc(F)c(F)c4F)n2)OC[C@]3(C)C(N)=O)C2CC2)cc2cn(C3CC3)nc12` [Example 525], the values for the EC50 in assay [1] and in assay [2] were less than 200 nM and less than 500 nM, respectively.
Turning to `COc1cc(C(=O)NC[C@](O)(c2cc3c(c(-c4ccc(F)c(F)c4F)n2)OC[C@]3(C)C(N)=O)C2CC2)cc2cc(Cl)c(C)nc12` [Example 526], the EC50 was less than 200 nM in assay [1] and less than 500 nM in assay [2].
In the case of `Cc1cnc2c(OC(F)F)cc(C(=O)NC[C@](O)(c3cc4c(c(-c5ccc(F)c(F)c5F)n3)OC[C@]4(C)C(N)=O)C3CC3)cc2c1` [Example 527], the figures for the EC50 in assay [1] and in assay [2] were less than 200 nM and less than 500 nM, respectively.
Consider `COc1cc(C(=O)NC[C@](O)(c2cc3c(c(-c4ccc(F)c(F)c4F)n2)OC[C@]3(C)C(N)=O)C2CC2)cc2cn(C(F)F)nc12` [Example 528], for which the EC50 is less than 200 nM in assay [1] and less than 500 nM in assay [2].
On to `COc1cc(C(=O)NC[C@](O)(c2cc3c(c(-c4ccc(F)cc4Cl)n2)OC[C@]3(C)C(N)=O)C(F)(F)F)cc2cn(C(F)F)nc12` [Example 529], for which the EC50 in assay [1] is less than 200 nM; in assay [2], less than 500 nM.
Consider `Cc1nc2c(OC3CC3)cc(C(=O)NC[C@](O)(c3cc4c(c(-c5ccc(F)c(F)c5F)n3)OC[C@]4(C)C(N)=O)C3CC3)cc2cc1Cl` [Example 530], for which the EC50 in assay [1] was less than 200 nM; in assay [2], less than 500 nM.
Regarding `Cc1cnc2c(Cl)cc(C(=O)NC[C@](O)(c3cc4c(c(-c5ccc(F)c(F)c5F)n3)OC[C@]4(C)C(N)=O)C3CC3)cc2c1` [Example 531], the values for the EC50 in assay [1] and in assay [2] were less than 200 nM and less than 500 nM, respectively.
Take `COc1cc(C(=O)NC[C@](O)(c2cc3c(c(-c4ccc(F)c(F)c4F)n2)OC[C@]3(C)C(N)=O)C2CC2)cc2cc(Br)cnc12` [Example 532]: the figures for the EC50 in assay [1] and in assay [2] were less than 200 nM and less than 500 nM, respectively.
`COc1cc(C(=O)NC[C@](O)(c2cc3c(c(-c4ccc(F)c(F)c4Cl)n2)OC[C@]3(C)C(N)=O)C2CC2)cc2cn(C3CC3)nc12` [Example 533]: the figures for the EC50 in assay [1] and in assay [2] were less than 200 nM and less than 500 nM, respectively.
Regarding `COc1cc(C(=O)NC[C@](O)(c2cc3c(c(-c4ccc(F)c(F)c4)n2)OC[C@]3(C)C(N)=O)C2CC2)cc2cn(C3CC3)nc12` [Example 534], the EC50 in assay [1] is less than 200 nM; in assay [2], less than 500 nM.
The matching figures for `COc1cc(C(=O)NC[C@](O)(c2cc3c(c(-c4cc(Cl)ccc4F)n2)OC[C@]3(C)C(N)=O)C2CC2)cc2cn(C3CC3)nc12` [Example 536]: less than 200 nM and less than 500 nM.
On to `COc1cc(C(=O)NC[C@](O)(c2cc3c(c(-c4ccc(F)c(F)c4F)n2)OC[C@]3(C)C(N)=O)C2CC2)cc2cn(C3(F)CC3)nc12` [Example 537], for which the EC50 in assay [1] was less than 200 nM; in assay [2], less than 500 nM.
With `Cc1cnc2c(OC(F)F)cc(C(=O)NC[C@](O)(c3cc4c(c(-c5ccc6c(c5)OC(F)(F)O6)n3)OC[C@]4(C)C(N)=O)C3CC3)cc2c1` [Example 538], the results for the EC50 in assay [1] and in assay [2] were less than 200 nM and less than 500 nM, respectively.
The matching figures for `Cc1cnc2c(Cl)cc(C(=O)NC[C@](O)(c3cc4c(c(-c5ccc6c(c5)OC(F)(F)O6)n3)OC[C@]4(C)C(N)=O)C3CC3)cc2c1` [Example 539]: less than 200 nM and less than 500 nM.
